{"source": "patent US20080242688A1", "about": "“Method 741” (ASTRAZENECA AB, priority 2007, published 2008)", "key": {"[1]": {"test_system": "guinea pigs", "assay": "Cardiac repolarisation in the anesthetised guinea pig", "type": "in vivo", "procedure": "Effects of AZD0328 on ventricular repolarisation and intracardiac conduction were investigated in 6 anesthetised and ventilated guinea pigs (Table 3). For the electrophysiological characterisation, monophasic action potentia MAP duration at 90% repolarisation (MAPD90), ventricular conduction velocity (MAP rise time), and atrioventricular (AV) conduction time were recorded during cardiac pacing. AZD0328 had dose-dependent effects on the electrophysiological activities in the guinea pig heart. At the highest dose, resulting in a total plasma concentration of 8.5 μM, MAPD90 and AV conduction time were prolonged by 20% and 13%, respectively. It is concluded that AZD0328 delayed ventricular repolarisation in the anesthetised guinea pig by 10% at a total plasma concentration of 2.4 μM."}, "[2]": {"assay": "CNS side effects in rhesus monkeys", "conditions": "rhesus monkey, in vivo, po, read-out: NOAEL for decreased spatial working memory performance and CNS side effects (oral movements)", "procedure": "CNS side effects and decreased spatial working memory performance only occurred together in monkeys administered high dose AZD0328. The NOAEL for decreased spatial working memory performance and oral movements in rhesus monkeys was determined to be 0.016 mg/kg. Doses projected to produce therapeutic benefits in human subjects are those doses that were effective in functional assays across three species and were below the NOAEL for adverse effects on cognitive function and general behaviour in rhesus monkeys (<0.016 mg/kg). Doses projected to produce therapeutic benefits in human subjects therefore fall in the range 0.0001-0.01 mg/kg."}, "[3]": {"assay": "Respiratory effects, whole body plethysmography", "type": "in vivo", "conditions": "plasma; rat, oral; read-out: NOAEL on ventilatory function, total Cmax", "procedure": "Effects of single oral doses of AZD0328 on mean, systolic and diastolic arterial blood pressures, heart rate, body temperature, locomotor activity and respiratory parameters were evaluated in rats by combining whole body plethysmography with telemetry (Table 3). […] The degree of hypertension, however, was similar at the 3 highest doses, which partly can be explained by the high individual variation in plasma exposure at each dose level. The effect on heart rate was, on the other hand, dose-related.\nEffects of AZD0328 on respiratory function were evaluated in the combined cardiovascular/respiratory study in rats (Table 3). Respiratory rate, tidal volume, inspiratory and expiratory times, and peak inspiratory and expiratory flows were measured […]."}, "[4]": {"assay": "Single dose PK/TK, rabbit", "conditions": "New Zealand White, in vivo", "excerpt": "This section provides a summary of the pharmacokinetic and metabolism properties of AZD0328 derived from in vivo studies. […] The derived PK/TK parameters from these studies are presented in Table 4 for single dose studies (DMR4, 0619LR, 20030191PCR, DMO16, DMB10, DMW12, 50190, 0190DD and 03.330/1), and are presented in Table 5 multiple dose PK/TK studies (DMR4, 0612AR, DMB15, 50190, 0190DD and 0295AD)."}, "[5]": {"conditions": "highest dose, total plasma concentration 8.5 μM"}, "[6]": {"conditions": "female, sc, rabbit 3F, DMB10, single subcutaneous 2.16 mg/kg (10 μmol/kg)"}, "[7]": {"conditions": "female, sc, rabbit 3F, DMB10, single subcutaneous 6.49 mg/kg (30 μmol/kg)"}}, "note": "Several values for one entry are separate records, joined by “and”; a condition that tells them apart may be missing. Equal entries are not always repeated. Where two headings read alike, the source gives them in different places."}
{"smiles": "c1cnc2c(c1)C[C@@]1(CN3CCC1CC3)O2", "note": "[AZD0328, (R)-Spiro[1-azabicyclo[2.2.2]octane-3,2′(3′H)-furo[2,3-b]pyridine]]", "values": [{"measurement": "total plasma concentration", "setting": "[1]; highest dose, iv cumulative bolus", "result": 8.5, "unit": "µM"}, {"measurement": "prolongation of AV conduction time", "setting": "[1]; [5]", "result": 13, "unit": "%"}, {"measurement": "prolongation of MAPD90", "setting": "[1]; [5]", "result": 20, "unit": "%"}, {"measurement": "NOAEL, guinea pig MAP assay", "setting": "[1]; in vivo", "result": 1, "unit": "µM"}, {"measurement": "NOAEL", "setting": "[2]", "result": 0.016, "unit": "mg/kg"}, {"measurement": "Cmax", "setting": "[3]", "result": 31.2, "unit": "µM"}, {"measurement": "half-life", "setting": "[4]; rabbit, read-out: elimination half-life", "result": "< 300", "unit": "min"}, {"measurement": "AUC", "setting": "[4]; [6]", "result": "1750 ng·h/mL and 8.1 µM·h"}, {"measurement": "Cmax", "setting": "[4]; [6]", "result": "589 ng/mL and 2.72 µM"}, {"measurement": "Tmax", "setting": "[4]; [6]", "result": "30 to 67.2", "unit": "min"}, {"measurement": "half-life", "setting": "[4]; female, sc, rabbit 3F, DMB10, single subcutaneous 2.16 mg/kg (10 μmol/kg), read-out: T½ (converted)", "result": "163 ± 70.2", "unit": "min"}, {"measurement": "AUC", "setting": "[4]; [7]", "result": "7340 ng·h/mL and 33.9 µM·h"}, {"measurement": "Cmax", "setting": "[4]; [7]", "result": "1750 ± 56", "unit": "ng/mL"}, {"measurement": "Tmax", "setting": "[4]; [7]", "result": "16 to 64.8", "unit": "min"}, {"measurement": "half-life", "setting": "[4]; female, sc, rabbit 3F, DMB10, single subcutaneous 6.49 mg/kg (30 μmol/kg), read-out: T½ (converted)", "result": "274 ± 81.6", "unit": "min"}]}
